Experiments:
[1] = test system: purified mouse liver mitochondria; test: Flow cytometric analysis of mitochondrial transmembrane potential (JC-1) on isolated mitochondria; details: for changes of JC-1 fluorescence (ΔΨm): real-time, 20 µM mClCCP, 30 µM Ca2+ or alamethicin
Procedure: (§1) Liver mitochondria were isolated from 3-4 weeks old Balb-c mice (IFFA CREDO, Saint Germain sur l'Arbresle, France). Animals were fasted overnight before being killed by […] dislocation. Liver mitochondria were prepared as described (Jacotot, 2000). All steps were carried out at 4°C. Finally, the organelles were resuspended in 'swelling buffer', composed by 200 mM sucrose, 5 mM succinate, 10 mM Tris-MOPS (pH 7.4), 1 mM H3PO4, 2 µM Rotenone, and 10 µM EGTA at pH=7.4. Spectrophotometric and flow cytometric analyses were performed in this buffer. The protein content of isolated mitochondria was determined by the Bradford assay.
Mitochondrial transmembrane potential (ΔΨm) was assessed by 5,5',6,6',-tetracholoro-1,1,3,3'-tetraethylbenzimidazolyl carbocyanine iodide (JC-1, Molecular Probes) incorporation. This potential-sensitive cationic dye accumulates in the mitochondrial matrix according to the Nernst equation (Reers et al., 1991). JC-1 green fluorescence, associated with JC-1 monomers was collected in the FL-1 channel. JC-1 orange fluorescence, associated with the formation of J-aggregates was collected in the FL-2 channel (585 +/- 21 nm) (Reers et al, 1991). Both fluorescences were recorded in logarithmic amplifier mode, using the PMT at a voltage adjusted to 907 and 622 respectively. Spectral overlap was avoided by adjusting compensation network as follows: FL1 - 18.5% FL2 and FL2 - 25.4% FL1. The JC-1 orange green fluorescence ratio was calculated with the FCS Assistant software.
Fixed-time detection of ΔΨM was performed on mitochondrial samples containing 10 µg proteins in 100 µl of swelling buffer. Samples were submitted to MPT-inducing drugs for 15 min at 25°C, and JC-1 was added at 800 nM for 15 min at 37°C in the dark. Samples were immediately analyzed by flow cytometry, and data from 20.000 mitochondria (gated on FSC-SSC parameters) were recorded. This assay permitted to quantify the percentage of highly energized mitochondria (with both orange and green fluorescence) and depolarized mitochondria (with green fluorescence only) as depicted in part C2 of Fig.1.
Real-time monitoring of ΔΨm was performed on mitochondrial samples containing 1.5 µg proteins in 400 µl of swelling buffer. JC-1 loading was performed at 400 nM in for 15 minutes at 37°C. […] Then drugs were added to the sample, and ΔΨm variations were recorded for the following 16 minutes. Depolarization curves were drawn as previously indicated for swelling curves; the time scale was divided into discrete periods of 1 minute and the mean of JC-1 orange and JC-1 green fluorescence of the corresponding mitochondrial subsets was calculated by the CellQuest Pro software and exported into the Microsoft Excel software.

[2] = test system: purified mouse liver mitochondria; test: Flow cytometric (real-time FCM) analysis of mitochondrial morphology (FSC/SSC) on isolated mitochondria; details: for changes of mitochondrial size (FSC) and structure (SSC): 1-30 µM Calcium, 20 µM CCCP or alamethicin added to isolated mitochondria; for effect on alamethicin induced MMP: pre-treatment with inhibitor, then alamethicin (5 µg/ml)
Procedure: as §1
Fluorescence-activated flow cytometry was performed using a 3-color FACSCalibur cytometer equipped with a 15 mW air-cooled 488 nm argon laser (Becton Dickinson, San Jose, CA). Mitochondria analyses were performed after appropriate settings of the Forward angle light scatter (FSC) - Side angle light scatter (SSC) detectors (see Fig. 1). Discrimination between mitochondria and cellular debris and noise background was performed by an appropriate gating on FSC-SSC scatter plots (Fig. 1)(Radcliff G, Jaroszeski MJ 1998 Methods Mol Biol 91:1-24 Basics of flow cytometry). Systematic confirmation of the validity of this gating was obtained by a labeling of mitochondria with the ΔΨm-insensitive mitochondrial dye MitoTracker® Green (MTG, Molecular Probes, Eugene, OR) (Jacotot et al., 2001). Briefly mitochondria (1.5 µg proteins) were respuspended in 400 µl swelling buffer containing 200 nM MTG for 15 min at room temperature. The organelles were immediately analyzed on the cytometer with the CellQuest Pro software (Becton Dickinson). MTG fluorescence was collected in the FL-1 channel (530 +/- 15 nm) and analyzed in logarithmic amplifier mode, using the PMT at a voltage adjusted to 907. Data from 20,000 gated mitochondria were recorded and analyzed.
Mitochondrial size was analyzed through the light scattered by the organelles at low angle using the Forward scatter (FSC) photodiode. Signals were collected using the E-00 setting, with a logarithmic amplification gain of 5.41. Mitochondrial structure was evaluated by the light scattered in the perpendicular direction. It was assessed by the sensitive Side scatter (SSC) photomultiplier tube (PMT), using a voltage of 581, and a linear amplification gain adjusted to 4.27. The morphological changes related to swelling of purified mitochondria were monitored by the increase in mitochondrial size (FSC) and the decrease in the organelle structure (SSC) using the CellQuest Pro software. The FSC/SSC ratio was calculated by the FCS Assistant software and permitted to integrate both variations in size and structure into only one parameter.
Fixed-time analyses were performed on mitochondrial samples containing 10 µg proteins in 100 µl of swelling buffer. Samples were submitted to MPP-inducing reagents for 30 min at 25°C. Samples were immediately analyzed by flow cytometry, and data from 20.000 mitochondria were recorded. The percentage of specific swelling determined on forward scatter was calculated as follows; (FSCCa2+ - FSCReagent ) x 100 / (FSCCa2+ - FSCCo), were FSCCa2+, FSCReagent and FSCCo correspond to the FSC values obtained for CaCl2- treated, reagent - treated and untreated mitochondria respectively. Similar calculation was used to determine the percentage of specific swelling on SSC and FSC/SSC ratio values.
Real-time experiments were performed on mitochondrial samples containing 1.5 µg proteins in 800 µl (= 2 ng / […]l) of swelling buffer. Samples were acquired on the flow cytometer for 5 minutes to record basal morphological criteria. Then reagents were added to samples, and variations in light scattering were recorded for the following 15 minutes. The sample flow rate was settled to 12 µl +/- 3 µl / min for both fixed- and real-time analyses. […]

[3] = 50 µM BA or 10 µM CsA 5 minutes, then 30 min Ca2+ (30 µM)

| Compound | changes of JC-1 fluorescence (ΔΨm) [1] | changes of mitochondrial size (FSC) and structure (SSC) [2] | effect on alamethicin induced MMP [2] | effect on Ca2+ induced ΔΨm loss [1, 3] | effect on Ca2+ induced SSC decrease [2, 3] |
| --- | --- | --- | --- | --- | --- |
| N#CC(C#N)=NNc1cccc(Cl)c1 [CCCP, carbonyl cyanide meta-chlorophenylhydrazone] | rapid decrease in JC-1 orange fluorescence and a slow decrease in monomeric JC-1 green fluorescence | low but significant granularity (SSC) decrease without detectable size (FSC) changes | – | – | – |
| N.N.N.N.N.N.N.N.N.N.N.N.N.N.[Cl-].[Cl-].[Cl-].[Cl-].[Cl-].[Cl-].[O-2].[O-2].[Ru+3].[Ru+3].[Ru+4] [Ruthenium red] | – | – | not affected | – | – |
| [Ca+2].[Cl-].[Cl-] [Calcium, CaCl2] | a decrease in JC-1 orange fluorescence and a significant increase in JC-1 green fluorescence | dose-dependent SSC decrease and FSC increase | – | – | – |
| CO[C@H](C/C=C\C=C\CC/C=C/C[C@H](C)/C=C/C(=C\C(=O)O)CC(=O)O)/C(C)=C\C=C(/C)C(=O)O [bongkrekic acid] | – | – | not affected | strongly reduces | partly affect |
| alamethicin | a decrease in JC-1 orange fluorescence and a significant increase in JC-1 green fluorescence | simultaneous FSC increase and SSC decrease | – | – | – |

From EP1925625A2, “Method for screening modulators of mitochondrial functionning and new modulators obtained” (Theraptosis S.A., priority 2002, dated 2008)
